Legend:
Assay in all cases: Test A pre/postemergence
Format in all cases: in vivo
[1] = tested on: giant foxtail (Setaria faberi)
Protocol: (§1) Seeds of barnyardgrass (Echinochloa crus-galli), crabgrass (Digitaria sanguinalis), giant foxtail (Setaria faberi), morningglory (Ipomoea spp.), redroot pigweed (Amaranthus retroflexus) and velvetleaf (Abutilon theophrasti) were planted into a blend of loam soil and sand and treated preemergence with a directed soil spray using test chemicals formulated in a non-phytotoxic solvent mixture which included a surfactant. At the same time these species were also treated with postemergence applications of test chemicals formulated in the same manner.
(§2) Plants ranged in height from 2 to 10 cm and were in the 1- to 2-leaf stage for the postemergence treatment. Treated plants and untreated controls were maintained in a greenhouse for approximately ten days, after which time all treated plants were compared to untreated controls and visually evaluated for injury. Plant response ratings, summarized in Table A, are based on a 0 to 100 scale where 0 is no effect and 100 is complete control. A dash (-) response means no test results.

[2] = tested on: morningglory (Ipomoea spp.)
Protocol: as §1, §2

[3] = tested on: crabgrass (Digitaria sanguinalis)
Protocol: as §1, §2

[4] = tested on: barnyardgrass (Echinochloa crus-galli)
Protocol: as §1, §2

[5] = tested on: velvetleaf (Abutilon theophrasti)
Protocol: as §1, §2

[6] = tested on: redroot pigweed (Amaranthus retroflexus)
Protocol: as §1, §2

[7] = Postemergence, 125 g ai/ha, 0 to 100 scale (0 no effect, 100 complete control)
[8] = Postemergence, 500 g ai/ha, 0 to 100 scale (0 no effect, 100 complete control)
[9] = Preemergence, 125 g ai/ha, 0 to 100 scale where 0 is no effect and 100 is complete control, approximately ten days
[10] = Preemergence, 500 g ai/ha, 0 to 100 scale where 0 is no effect and 100 is complete control, approximately ten days

SMILES | Plant response rating, Foxtail, Giant [1, 7] | Plant response rating, Foxtail, Giant [1, 8] | Plant response rating, Foxtail, Giant [1, 9] | Plant response rating, Foxtail, Giant [1, 10] | Plant response rating, Morningglory [2, 7] | Plant response rating, Morningglory [2, 8] | Plant response rating, Morningglory [2, 9] | Plant response rating, Morningglory [2, 10] | Plant response rating, Crabgrass [3, 7] | Plant response rating, Crabgrass [3, 8] | Plant response rating, Crabgrass [3, 9] | Plant response rating, Crabgrass [3, 10] | Plant response rating, Barnyardgrass [4, 7] | Plant response rating, Barnyardgrass [4, 8] | Plant response rating, Barnyardgrass [4, 9] | Plant response rating, Barnyardgrass [4, 10] | Plant response rating, Velvetleaf [5, 7] | Plant response rating, Velvetleaf [5, 8] | Plant response rating, Velvetleaf [5, 9] | Plant response rating, Velvetleaf [5, 10] | other results
COCCOCCOC(=O)c1nc(C2CC2)nc(N)c1Cl [Compound 141] | 40 | 85 | 5 | 85 | 90 | 90 | 85 | 95 | 25 | 80 | 60 | 85 | 80 | 90 | 35 | 75 | 85 | 100 | 80 | 85 | Plant response rating, Pigweed [6, 7]: 90; Plant response rating, Pigweed [6, 8]: 100; Plant response rating, Pigweed [6, 9]: 80; Plant response rating, Pigweed [6, 10]: 85
CCOC(=O)COc1nc(-c2ccc(Cl)cc2)nc(N)c1Cl [Compound 114] | 0 | 0 | 0 | 0 | 40 | 55 | 0 | 0 | 0 | 0 | 0 | 0 | 0 | 0 | 0 | 0 | 0 | 5 | 0 | 0 | Plant response rating, Pigweed [6, 7]: 45; Plant response rating, Pigweed [6, 8]: 55; Plant response rating, Pigweed [6, 9]: 0; Plant response rating, Pigweed [6, 10]: 0
CC1(C)OCC(COC(=O)c2nc(C3CC3)nc(N)c2Cl)O1 (stereo not drawn) [Compound 147] | 60 | 90 | 40 | 85 | 85 | 100 | 95 | 100 | 25 | 75 | 70 | 80 | 80 | 90 | 70 | 85 | 80 | 100 | 75 | 95 | Plant response rating, Pigweed [6, 7]: 85; Plant response rating, Pigweed [6, 8]: 95; Plant response rating, Pigweed [6, 9]: 80; Plant response rating, Pigweed [6, 10]: 90
COC(OC)c1nc(-c2ccc(I)cc2)nc(N)c1Cl [Compound 134] | 0 | 0 | 0 | 0 | 0 | 0 | 0 | 0 | 0 | 0 | 0 | 0 | 0 | 0 | 0 | 0 | 50 | 55 | 0 | 0 | Plant response rating, Pigweed [6, 7]: 15; Plant response rating, Pigweed [6, 8]: 30; Plant response rating, Pigweed [6, 9]: 0; Plant response rating, Pigweed [6, 10]: 0
CS(=O)(=O)NC(=O)c1nc(-c2ccc(Cl)cc2)nc(N)c1Cl [Compound 131] | 15 | 30 | 0 | 0 | 0 | 20 | 0 | 0 | 10 | 30 | 0 | 0 | 10 | 20 | 0 | 0 | 35 | 60 | 0 | 0 | Plant response rating, Pigweed [6, 7]: 50; Plant response rating, Pigweed [6, 8]: 70; Plant response rating, Pigweed [6, 9]: 0; Plant response rating, Pigweed [6, 10]: 0
Nc1nc(C2CC2)nc(C(=O)OCC2COC(=O)O2)c1Cl (stereo not drawn) [Compound 149] | 60 | 80 | 35 | 90 | 80 | 95 | 85 | 100 | 25 | 75 | 20 | 75 | 65 | 90 | 70 | 85 | 85 | 100 | 70 | 85 | Plant response rating, Pigweed [6, 7]: 75; Plant response rating, Pigweed [6, 8]: 90; Plant response rating, Pigweed [6, 9]: 70; Plant response rating, Pigweed [6, 10]: 90
COC(=O)c1nc(-c2ccc(SC)cc2)nc(N)c1Cl [Compound 121] | 0 | 0 | 0 | 0 | 0 | 10 | 0 | 0 | 0 | 0 | 0 | 0 | 0 | 5 | 0 | 0 | 0 | 0 | 0 | 0 | Plant response rating, Pigweed [6, 7]: 0; Plant response rating, Pigweed [6, 8]: 0; Plant response rating, Pigweed [6, 9]: 0; Plant response rating, Pigweed [6, 10]: 0
